Measured values published in patent US20260116892A1, “CRYSTAL FORM OF COMPOUND AND PREPARATION METHOD THEREFOR” (NANJING INNOCARE PHARMA TECH CO., LTD., priority 2022, published 2026).
Entries after “also recorded” stand apart in the source; their conditions may differ.

Tests used:
Format in all cases: physicochemical
[1] = Suspension competition experiment between the crystalline forms in solution; details: equal amount of forms A/B in saturated solution of isopropyl alcohol and water, room temperature, stirring 2 days
Description: The transformation relationship between the crystalline forms was studied by a suspension competition experiment in the solution. The suspension competition between the crystalline form A and the crystalline form B was carried out at room temperature. The crystalline form A was obtained by adding equal amount of the crystalline form A/B to the saturated solution of isopropyl alcohol and water with suspending and stirring for 2 days.

[2] = Stability assessment of the crystalline form A (solid, accelerated and 12 months)
Excerpt: The “stability” described in the present invention refers to that neither degradation of the crystalline form has been found nor transformation to other crystalline form has been detected in the determination of the crystalline form by analytical means such as LC detection, XRPD, etc.
The solid sample of crystalline form A was exposed to high temperature, high humidity and light (open) for au one month accelerated stability study to observe the purity of the sample and the stability of the crystalline form.
The solid sample of crystalline form A was placed under the 30° C./65% RH (closed) for a 12 months stability study to observe the purity of the sample and the stability of the crystalline form (XRPD pattern).

[3] = Hygroscopicity assessment by dynamic vapor sorption (DVS); details: 25° C.
Description: The “hygroscopicity” described in the present invention refers to the characteristic of the substance's ability or degree of absorbing water under the conditions of certain temperature and humidity. Regarding to the characteristic description of hygroscopicity and the definition of hygroscopic weight gain (performing experiments according to the method of guideline 9103 of Pharmacopoeia of the People's Republic of China (2015) Volume IV. experimental conditions: 25° C.±1° C., 80%±2% of relative humidity):
deliquescence: sufficient water absorption to form a solution; very hygroscopic: hygroscopic weight gain of not less than 15%; phygroscopic: hygroscopic weight gain of less than 15% but not less than 2%; slightly hygroscopic: hygroscopic weight gain of less than 2% but not less than 0.2%; not or almost not hygroscopic: hygroscopic weight gain of less than 0.2%.
The dynamic vapor sorption (DVS) diagram described in the present invention was acquired using an Intrinsic dynamic vapor sorption instrument produced by SMS (Surface Measurement Systems Ltd.). The method parameters of the dynamic vapor sorption described in the present invention are as follows: […]
About 30 mg of the crystalline form A of the present invention was taken and subjected to a dynamic vapor sorption test using a dynamic vapor sorption (DVS). […] The XRPD was measured before and after the test.

[4] = 12 months, 30° C./65% RH (closed)
[5] = Acceleration for 1 month (25° C., 90% ± 5% RH), open
[6] = Acceleration for 1 month (60° C.), open
[7] = Acceleration for 13 days (10 days of light exposure, 3 days of UV exposure), open

| SMILES | Thermodynamic stability / transformation in suspension competition [1] | Purity (%) ([2]; 0 month (start of stability study)) | Crystalline form (XRPD) [2, 4] | Purity (%) [2, 4] | Stability (conclusion in words) ([2]; 60° C. 1 month, 25° C./90%±5% RH 1 month, light 13 days, 30° C./65% RH 12 months) | Crystalline form (XRPD) [2, 5] | Purity (%) [2, 5] | Crystalline form (XRPD) [2, 6] | Purity (%) [2, 6] | Crystalline form (XRPD) [2, 7] | Purity (%) [2, 7] | Crystalline form before and after DVS test (XRPD) ([3]; 0% RH to 95% RH) | Weight gain (DVS) ([3]; 80% relative humidity) |
| --- | --- | --- | --- | --- | --- | --- | --- | --- | --- | --- | --- | --- | --- |
| C[C@H]1CNC(=O)Nc2cnn3ccc(nc23)N2C[C@@H](F)C[C@@H]2c2cc(F)cnc2O1 [crystalline form B, (2^2R,2^4S,5S)-2^4,3^5-difluoro-5-methyl-4-oxa-7,9-diaza-1(5,3)-pyrazolo[1,5-a]pyrimidin-3(3,2)-pyridin-2(1,2)-pyrrolidincyclononan-8-one] | can be transformed into the crystalline form A |  |  |  |  |  |  |  |  |  |  |  |  |
| C[C@H]1CNC(=O)Nc2cnn3ccc(nc23)N2C[C@@H](F)C[C@@H]2c2cc(F)cnc2O1 [crystalline form A, (2^2R,2^4S,5S)-2^4,3^5-difluoro-5-methyl-4-oxa-7,9-diaza-1(5,3)-pyrazolo[1,5-a]pyrimidin-3(3,2)-pyridin-2(1,2)-pyrrolidincyclononan-8-one] | better thermodynamic stability | 98.9% | Unchanged | 99.4% | stable state; also recorded: good stability | Unchanged | 98.5% | Unchanged | 98.3% | Unchanged | 99.4% | remained unchanged | 0.46% |
